The melting point is the temperature of the solid-liquid transition.

One data set deals with Davis strain CMV. Nature of the data set: Reduction of CMV-induced cytopathicity in HEL cells. It is filed as cell-based, human cytomegalovirus (HCMV). Conditions: Human betaherpesvirus 5, 168 h; HEL cells, virus-induced cytopathicity after seven days; read-out: Antiviral EC50 (ug/ml) Davis strain CMV. The essentials: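 Confluent HEL cells were infected with 100 PFU/well CMV for 1–2 h, then washed and kept in MEM with 2% FCS and test compound. EC50 is the concentration cutting virus-induced cytopathicity by 50% versus untreated control at day 7. Where cytotoxicity interfered, percent protection at the stated concentration is given.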
On the technique in general: Cytopathic effects are the visible damage that an infection or toxin causes in cultured cells.

The next data set deals with HIV-1 (IIIB). Nature of the data set: microbe, parasite or virus in culture. Format: cell-based. Conditions: Human immunodeficiency virus 1, IIIB, CCRF-CEM; CEM cells, syncytium formation, day four post infection; read-out: EC50 (ug/ml) HIV-1. The essentials: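 Human T-lymphoblast CEM cells at roughly 300,000 cells per ml were infected with about 100 CCID50 of HIV-1 (IIIB). Then 100 μl of the infected suspension went into 200 μl microtiter wells holding 100 μl of 5-fold serial compound dilutions. Inhibition of syncytium formation was scored microscopically on day four post infection, and protection against virus-induced cytopathicity was recorded.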

In the next data set the test system is MOLT-3 cells. Nature of the data set: Toxicity in MOLT-3 cells, changes in cell morphology by microscopic examination. Format: cell-based, human. How it is done: (§1) Two human immature T-lymphoblastoid cell lines were used: HSB-2, obtained from American Type Culture Collection (No. CCL 120.1); and MOLT-3, purchased from ABI Technologies (Columbia, Md., USA). The cells were propagated in RPMI 1640 medium supplemented with 10% fetal calf serum, 2 mM L-glutamine, 0.075% sodium bicarbonate and gentamycin. The cultures were incubated at 37° C. in a humidified and CO2 controlled incubator.
(§2) The cells were incubated at 37° C. and subcultivated on days four and seven by two-fold dilution in medium containing fresh test compound or control. On days 10–14, the cells were examined microscopically to score the viral cytopathic effect (CPE) visible by the appearance of large ballooning cells and drug toxicity. Then total DNA was extracted from the infected cells with the QIAamp Blood Kit (Qiagen, Germany), using the manufacturer's instructions, and the DNA extracts were frozen at −20° C. until further analysis.
The antiviral IC50 was calculated by extrapolation and defined as the compound concentration that produced 50% inhibition of virus replication as determined by microscopic examination or quantitation of viral DNA. Toxicity of the compounds was expressed as minimum cytotoxic concentration (MCC), or the lowest compound concentration that caused a microscopically visible alteration in cellular morphology.

The test system of another data set is HIV-2 (ROD). Nature of the data set: Inhibition of HIV-2 syncytium formation in CEM cells. Format: cell-based. Conditions: for EC50: Human immunodeficiency virus 2, CCRF-CEM, CEM cells, syncytium formation, day four post infection, read-out: EC50 (ug/ml) HIV-2. A digest of the protocol:
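Human T-lymphoblast CEM cells, suspended at roughly 300,000 cells per ml of culture medium, were infected with about 100 CCID50 of HIV-2 (ROD). Aliquots of 100 μl of infected cells were placed in 200 μl microtiter wells holding 100 μl of serial 5-fold compound dilutions, and syncytium formation was scored microscopically four days after infection.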

Data set [1] deals with HHV-6 (Z-29 strain, variant B). Nature of the data set: Anti-HHV-6 activity in MOLT-3 cells (CPE and viral DNA slot blot). Format: cell-based, human herpes virus type 6 (HHV-6). Conditions: Homo sapiens. The procedure:
as §1
The GS strain of HHV-6 variant A was kindly provided by Dr. R. Gallo, while the Z-29 strain of HHV-6 variant B was obtained from ABI Technologies (Columbia, Md., USA). For preparation of virus stocks, suspensions of HSB-2 cells infected with strain GS, or MOLT-3 cells infected with strain Z-29, were collected at 10–12 days post infection, when the cytopathic effect (CPE) was maximal and cells were >90% virus positive (as determined by immunofluorescence detection of HHV-6 antigens). Since the titer of virus released in culture supernatant was insufficient, virus stocks were used as whole cell suspensions, which were relatively stable when kept in aliquots at −80° C.
Stock solutions of the test compounds or of standards were prepared in dimethylsulfoxide or phosphate buffered saline (PBS). Working dilutions for the antiviral assays were prepared by appropriate dilution of the stock solutions in cell culture medium. The antiherpetic drug Foscarnet (PFA, Foscavir® from Astra, Södertälje, Sweden) was used as standard.
On day 0, the GS and Z-29 strains of HHV-6 were inoculated onto HSB-2 cells and MOLT-3 cells, respectively, at a multiplicity of infection of 0.001 CCID50 (50% cell culture infective doses) per cell, and a cell suspension having a cell density of approximately 5×10^6 cells per ml of culture medium. After two hours of virus adsorption at 37° C., the unadsorbed virus was removed by centrifugation and the infected cells were resuspended and transferred to 48-well microtrays containing the test compounds or control in two- to five-fold dilutions. The final cell density of the suspended cells was approximately 0.8×10^6 cells per ml of culture medium.
as §2
A digoxigenin labeled probe specific for strain GS or Z-29, was prepared by PCR reaction in the presence of digoxigenin-dUTP, on a 1-μl aliquot of a DNA extract prepared from infected cells showing manifest CPE. The 5′-3′ primer sequence was GCTAGAACG TATTTGCTGCAGAACG (Seq. Id. No. 1) and […] (Seq. Id. No. 2), delimiting a 259 bp sequence within the U67 gene. The amplified product was separated on agarose gel and extracted from the gel fragment with the QIAquick gel extraction kit (Qiagen, Germany) after which the purified probe was frozen at −20° C.
For quantitation of viral DNA in the infected and drug-treated cell cultures, appropriate aliquots of the total DNA extracts (containing 5 μg of total DNA, as determined spectrophotometrically at 260 nm) were boiled during 10 min, and blotted on a nylon membrane (Hybond-N from Amersham) using a Hoefer slot blot apparatus from Pharmacia (Sweden). After UV cross-linking, the membrane was prehybridized during 30 min at 42° C. with DIG (digoxigenin) easy Hyb solution® (Boehringer Mannheim, Germany). Then, the GS- or Z-29 specific digoxigenin labeled probe was added and allowed to hybridize by incubation overnight at 42° C. […]

Where [2] appears, read: MOLT-3, read-out: EC50 Based on CPE, MOLT-3 cells, Exp. 1.
The mark [3] stands for this setting: MOLT-3, read-out: EC50 Based on CPE, MOLT-3 cells, Exp. 2.
Setting [4] is: MOLT-3, read-out: EC50 Based on CPE, MOLT-3 cells, Exp. 3.
The mark [5] stands for this setting: MOLT-3, read-out: EC50 Based on Viral DMA Detection, MOLT-3 cells, Exp. 1.
Setting [6] is: MOLT-3, read-out: EC50 Based on Viral DMA Detection, MOLT-3 cells, Exp. 2.
The mark [7] stands for this setting: MOLT-3, read-out: EC50 Based on Viral DMA Detection, MOLT-3 cells, Exp. 3.

≈ marks a conversion by molar mass, not a printed value. Where two headings read alike, the source gives them in different places.

Turning to `O=S(=O)(Cc1ccccc1)c1cccc[n+]1[O-]` [Compound 6, 2-(Benzylsulfonyl)-pyridine-N-oxide], the EC50 in the data set on Davis strain CMV worked out at 19.5 µg/mL (≈ 78.2 µM); in the data set with HIV-1 (IIIB), 4.4 µg/mL (≈ 17.7 µM); in the data set on HIV-2 (ROD), 4.4 µg/mL (≈ 17.7 µM); in data set [1] (setting [2]), 17.1 µg/mL (≈ 68.6 µM); in data set [1] (setting [3]), 8.7 µg/mL (≈ 34.9 µM); in data set [1] (setting [4]), 12.9 µg/mL (≈ 51.7 µM). In addition, the EC50 in data set [1] (setting [5]) stood at 28.1 µg/mL (≈ 113 µM); in data set [1] (setting [6]), 17.3 µg/mL (≈ 69.4 µM); in data set [1] (setting [7]) it was 22.7 µg/mL (≈ 91.1 µM). For the same molecule, the “MIC (concentration causing minimal changes in cell morphology)” value with MOLT-3 cells (Exp. 1), against MOLT-3 cells (Exp. 2) and in the data set with MOLT-3 cells (Exp. 3) was 100 μg/ml throughout.

In the case of `Cc1ccc(C)c(CS(=O)(=O)c2cccc[n+]2[O-])c1` [Compound 10, 2-(2,5-Dimethylphenylmethylsulfonyl)pyridine N-oxide], the EC50 in the data set with Davis strain CMV was determined as 10 µg/mL (≈ 36.1 µM); in the data set with HIV-1 (IIIB), 1.8 µg/mL (≈ 6.49 µM); with HIV-2 (ROD), 5.8 µg/mL (≈ 20.9 µM); in data set [1] (setting [2]), 12.6 µg/mL (≈ 45.4 µM); in data set [1] (setting [3]), 11.1 µg/mL (≈ 40 µM); in data set [1] (setting [4]), 11.8 µg/mL (≈ 42.5 µM). In addition, the EC50 amounted to 21.8 µg/mL (≈ 78.6 µM) in data set [1] (setting [5]), 9.4 µg/mL (≈ 33.9 µM) in data set [1] (setting [6]) and 15.6 µg/mL (≈ 56.2 µM) in data set [1] (setting [7]). Besides, the “MIC (concentration causing minimal changes in cell morphology)” value in the data set on MOLT-3 cells (Exp. 1) is 50 μg/ml; against MOLT-3 cells (Exp. 2), 100 μg/ml; against MOLT-3 cells (Exp. 3) it was “≧50 μg/ml”.

`Cc1ccc(C)c(CS(=O)(=O)c2c(C)ccc[n+]2[O-])c1` [Compound 165, 2-[((2,5-dimethylphenyl)methyl)sulfonyl]-3-methylpyridine-1-oxide] gave a melting point of 171 to 173 °C. Further, in the data set with HIV-1 (IIIB), the EC50 was found to be 0.14 µg/mL (≈ 0.48 µM). Also, in the data set on HIV-2 (ROD), the EC50 is greater than 4 µg/mL. Further, the “HIV-2 % Protection” value with HIV-2 (ROD) (protection of CEM cells against virus-induced cytopathicity at the concentration in the previous column) came to 0.0%.

For the origin of these results see patent US7064139B2, “Method for treating retroviral infections” (Uniroyal Chemical Company, Inc., priority 2001, dated 2006).
